In patent publication US20260199371A1, “COORDINATION COMPOUND, COMPOSITIONS, AND USES THEREOF FOR TREATING CANCERS” (HUEIYUAN BIOTECH LLC, priority 2023, published 2026):

Tests used:
BEAS-2B cells = conditions: 0-800 μg/ml, 24 hours
Method: (§1) BEAS-2B cells (95102433, Sigma-Aldrich) were cultured in LHC-9 medium (Gibco™, Thermo Fisher Scientific, Waltham, MA, USA).

CL1-parental cells = conditions: 0-1600 μg/ml, 24 hours
Method: as §1

[1] = system: gemcitabine-resistant CL1 cells (CL1-GEMR cells); conditions: 0-1600 μg/ml, 24 hours
Method: as §1

[2] = system: ER stress markers in LoVo-OXAR cells; conditions: 2000 μg/ml, 24 hours
Method: Western blot analysis was conducted using primary antibodies against protein kinase RNA-like endoplasmic reticulum kinase (PERK), phosphorylated PERK (p-PERK), alpha subunit of eukaryotic translation initiation factor 2 (eIF2α), phosphorylated eIF2α (p-eIF2α), activating transcription factor 4 (ATF4), proliferating cell nuclear antigen (PCNA), glyceraldehyde 3-phosphate dehydrogenase (GAPDH), and caspase 3 (San-ta Cruz Biotechnology Inc. Santa Cruz, California, USA). GAPDH was used as an internal control for the normalization of protein expression. […] Phosphorylated eIF2α has been known to inhibit the synthesis of various proteins participating in tumorigenesis.

[3] = system: LoVo-OXAR cells tumor xenograft
Method: (§2) Six-week-old male NU/NU mice were purchased from Bio LASCO Taiwan Co., Ltd (Taipei, Taiwan) and randomly assigned into four groups (Groups 1 to 4), each containing three mice. […] Tumor volume and mice body weight were measured every three days. […] All mice were sacrificed on day 21, and the tumors were excised and weighed.
(§3) Moreover, the LoVo-parental and LoVo-OXAR tumor tissues were collected and subject to TUNEL assay.

[4] = system: LoVo-parental cells tumor xenograft
Method: as §2, §3

LNCaP cells = conditions: 24 hours
Method: Human prostate carcinoma LNCaP cells (commercially available from ATCC under the number CRL-1740) were cultured in RPMI-1640 medium (Gibco™, Thermo Fisher Scientific, Waltham, MA, USA) supplemented with 10% FBS.

143B cells = conditions: Transwell migration
Method: (§4) Transwell migration assay, as described in Example 5.1, was performed on 143B cells to investigate how the compound (II) would affect the migration ability of bone cancer cells.

[5] = system: EMT markers in 143B cells; conditions: western blot
Method: as §4

GBM 8401 cells = conditions: 0-1800 μg/ml, 24 hours
Method: Human brain glioblastoma multiforme GBM 8401 cells (commercially available from BCRC under the number BCRC 60163) were cultured in RPMI 1640 medium supplemented with 10% FBS.

MDA-MB231 cells = conditions: 0-3000 μg/ml, 24 hours; effect more prominent than in T-47D
Method: (§5) Human breast cancer cells T-47D (commercially available from ATCC under the number HTB-133) and MDA-MB231 (commercially available from ATCC under the number HTB-26) were cultured in RPMI 1640 medium supplemented with 10% FBS.

T-47D cells = conditions: 0-3000 μg/ml, 24 hours
Method: as §5

SCC-25 cells = conditions: 0-1400 μg/ml, 24 hours
Method: Human oral squamous cell carcinoma (OSCC)SCC-25 cells (commercially available from ATCC under the number CRL-1628) were cultured in DMEM/F12 supplemented with 10% FBS.

CP70 cells = conditions: 0-1600 μg/ml, 24 hours
Jurkat cells = conditions: 0-1600 μg/ml, 24 hours
Method: Human T-acute lymphoblastic leukemia Jurkat cells (resistant to cisplatin and commercially available from ATCC under the number TIB-512) were cultured in RPMI 1640 medium supplemented with 10% FBS.

TT cells = conditions: 0.1-1000 μg/ml, 72 hours
Method: Human medullary thyroid carcinoma TT cells (commercially available from ATCC under the number CRL-1803) were cultured in F12K medium (Gibco™, Thermo Fisher Scientific, Waltham, MA, USA) supplemented with 10% FBS.

A431 cells = conditions: 1-1000 μg/ml, 48 hours
Method: Human epidermoid carcinoma A431 cells (commercially available from ATCC under the number CRL-1555) were cultured in DMEM supplemented with 10% FBS.

MIA PaCa-2 cells = conditions: six days
Method: (§6) Human pancreatic carcinoma MIA PaCa-2 cells (commercially available from ATCC under the number CRL-1420) were cultured in DMEM supplemented with 10% FBS, 1 mM sodium pyruvate, and 2.5% horse serum. Human pancreatic epithelioid carcinoma PANC-1 cells (commercially available from ATCC under the number CRL-1469) were cultured in DMEM supplemented with 10% FBS and 1 mM sodium pyruvate.

PANC-1 cells = conditions: six days
Method: as §6

LoVo-OXAR cells [6] = conditions: 24 hours
LoVo-parental cells = conditions: single agent: compound (II) 500 μg/ml or oxaliplatin 50 μg/ml, 48 hours
LoVo-OXAR cells [7] = conditions: single agent: compound (II) 2000 μg/ml or oxaliplatin 50 μg/ml, 72 hours

Q: What does the source list for CC(=O)[O-].CC(=O)[O-].CC(=O)[O-].CC(=O)[O-].CC(=O)[O-].CC(=O)[O-].O.O.O.O.O=[N+]([O-])[O-].[Cr+3].[Fe+3].[Fe+3].[OH-].[OH-] [compound (II)]?
A: survival of non-tumorigenic BEAS-2B cells (BEAS-2B cells): did not significantly inhibit the survival of BEAS-2B cells; viability of CL1-parental cells (CL1-parental cells): reduced the viability of both lung cancer cells in a dose-dependent manner; viability of gemcitabine-resistant CL1 cells [1]: reduced the viability of both lung cancer cells in a dose-dependent manner; eIF2α levels in LoVo-OXAR cells ([2]; western blot): decreased; phosphorylation of eIF2α in LoVo-OXAR cells ([2]; western blot): increased; caspase-3 cleavage ([2]; LoVo-OXAR cells): activates caspase-3 cleavage; expression of ER stress markers, including PERK, p-eIF2α, and ATF4 ([2]; LoVo-OXAR cells): enhancing the expression of ER stress markers; apoptosis in tumors (TUNEL) ([3]; LoVo-OXAR tumors): induced significantly higher apoptosis; health of mice after treatment ([3]; LoVo-OXAR xenograft, 100 mg/kg orally every three days): healthy; tumor growth ([3]; LoVo-OXAR xenograft, 100 mg/kg orally every three days, about three weeks): significantly reduced the tumor growth; body weight of the mice ([3]; LoVo-OXAR xenograft, day 1 to day 21, loss attributed to the tumor): body weight loss; apoptosis in tumors (TUNEL) ([4]; LoVo-parental tumors): induced significantly higher apoptosis; health of mice after treatment ([4]; LoVo-parental xenograft, 100 mg/kg orally every three days): healthy; tumor growth ([4]; LoVo-parental xenograft, 100 mg/kg orally every three days, about three weeks): significantly reduced the tumor growth; body weight of the mice ([4]; LoVo-parental xenograft, day 1 to day 21): remained constant; viability of LNCaP cells (LNCaP cells; 0-1600 μg/ml): reduced the viability of the prostate cancer cells in a dose-dependent manner; IC50 against LNCaP cells (LNCaP cells; MTT): approximately 1033 μg/ml; crawling (migration) of 143B cells (143B cells): inhibited by the compound (II) in a dose-dependent manner; E-cadherin expression [5]: increasing; vimentin expression [5]: significantly decreased; viability of GBM 8401 cells (GBM 8401 cells): reduced the viability of the glioblastoma cells in a dose-dependent manner; viability of MDA-MB231 cells (MDA-MB231 cells): reduced the viability of both breast cancer cells in a dose-dependent manner; viability of T-47D cells (T-47D cells): reduced the viability of both breast cancer cells in a dose-dependent manner; viability of SCC-25 cells (SCC-25 cells): reduced the viability of the OSCC cells in a dose-dependent manner; viability of CP70 cells (CP70 cells): reduced the viability of the ovarian cancer cells in a dose-dependent manner; viability of Jurkat cells (Jurkat cells): reduced the viability of the Jurkat cells in a dose-dependent manner; viability of TT cells (TT cells): reduced the viability of the TT cells in a dose-dependent manner; viability of A431 cells (A431 cells): reduced the viability of the A431 cells in a dose-dependent manner; viability of MIA PaCa-2 cells (MIA PaCa-2 cells; 0-2000 μg/ml): reduced the viability of both pancreatic cancer cells in a dose-dependent manner; IC50 against MIA PaCa-2 cells (MIA PaCa-2 cells; MTT): approximately 660 μg/ml; viability of PANC-1 cells (PANC-1 cells; 0-2000 μg/ml): reduced the viability of both pancreatic cancer cells in a dose-dependent manner; IC50 against PANC-1 cells (PANC-1 cells; MTT): ~1700 mg/L; viability of LoVo-OXAR cells (LoVo-OXAR cells [6]; 0-4000 μg/ml): reduced the viability of both colorectal cancer cells in a dose-dependent manner; IC50 against LoVo-OXAR cells (LoVo-OXAR cells [6]; MTT): about 2000 μg/ml; migration rate of LoVo-parental cells (LoVo-parental cells): significantly decreased; invasion rate of LoVo-OXAR cells (LoVo-OXAR cells [7]): significantly decreased
